Data taken from patent US20130281399A1, “TREATMENT OF DISEASES BY EPIGENETIC REGULATION” (RVX Therapeutics Inc., priority 2012, published 2013).

What was measured:
Brd4 bromodomain 1 = biological target: T1, Brd4 bromodomain 1 (Homo sapiens, UniProt O60885); assay: Inhibition of binding of tetra-acetylated histone H4 to Brd4 bromodomain 1 (TR-FRET); conditions: His-tagged Brd4 bromodomain 1 200 nM, tetra-acetylated histone H4 peptide 25-50 nM, 2 hours room temperature
T1 construct: made in house; host or cells: E. coli BL21(DE3)
Experimental: Proteins were cloned and overexpressed with a N-terminal 6×His tag, then purified by nickel affinity followed by size exclusion chromatography. Briefly, E. coli BL21(DE3) cells were transformed with a recombinant expression vector encoding N-terminally Nickel affinity tagged bromodomains from Brd2, Brd3, Brd4. Cell cultures were incubated at 37° C. with shaking to the appropriate density and induced overnight with IPTG. The supernatant of lysed cells was loaded onto Ni-IDA column for purification. Eluted protein was pooled, concentrated and further purified by size exclusion chromatography. Fractions representing monomeric protein were pooled, concentrated, aliquoted, and frozen at −80° C. for use in subsequent experiments.
For inhibition assays, serially diluted test compound was added to these reactions in a 0.2% final concentration of DMSO. Final buffer concentrations were 30 mM HEPES pH 7.4, 30 mM NaCl, 0.3 mM CHAPS, 20 mM phosphate pH 7.0, 320 mM KF, 0.08% BSA). […] The binding inhibitory activity was shown by a decrease in 665 nm fluorescence relative to 620 nm. IC50 values were determined from a dose response curve.

| SMILES | melting point | FRET activity (<50 uM) (Brd4 bromodomain 1) |
| --- | --- | --- |
| COc1cc(OC)c2c(=O)[nH]c(-c3cc(C)c(OCCN4CCCC4)c(C)c3)nc2n1 | 228 to 230 °C |  |
| COc1cc(OC)c2c(=O)[nH]c(-c3ccc(N4CCC(O)CC4)cc3)nc2n1 [Example 8, 2-(4-(4-Hydroxypiperidin-1-yl)phenyl)-5,7-dimethoxypyrido[2,3-d]pyrimidin-4(3H)-one] | 284 to 286 °C | Active |
| COCCOc1cc(OC)c2c(=O)[nH]c(-c3ccc(N4C[C@@H](C)N(C(C)=O)[C@@H](C)C4)cc3)nc2c1 [Example 9, 2-(4-((3R,5S)-4-Acetyl-3,5-dimethylpiperazin-1-yl)phenyl)-5-methoxy-7-(2-methoxyethoxy)quinazolin-4(3H)-one] | 225 to 227 °C | Active |
| COc1cc(OC)c2c(=O)[nH]c(-c3cc(C)c(OCCN4Cc5ccccc5C4)c(C)c3)nc2c1 [Example 65, 2-(4-(2-(Isoindolin-2-yl)ethoxy)-3,5-dimethylphenyl)-5,7-dimethoxyquinazolin-4(3H)-one] |  | Active |
| COc1cccc2nc(-c3cc(C)c(OCCN4CCCC4)c(C)c3)[nH]c(=O)c12 [Example 66, 2-(3,5-Dimethyl-4-(2-(pyrrolidin-1-yl)ethoxy)phenyl)-5-methoxyquinazolin-4(3H)-one] | 157 to 158 °C | Active |
| Cc1cc(-c2nc3cc(Cl)cc(Cl)c3c(=O)[nH]2)cc(C)c1OCCN1CCCC1 [Example 67, 5,7-Dichloro-2-(3,5-dimethyl-4-(2-(pyrrolidin-1-yl)ethoxy)phenyl)quinazolin-4(3H)-one] | 209 to 210 °C | Inactive |
| COc1cc(OC)c2c(=O)[nH]c(-c3cc(C)c(OCCN4CCN(C(C)=O)CC4)c(C)c3)nc2c1 [Example 68, 2-(4-(2-(4-Acetylpiperazin-1-yl)ethoxy)-3,5-dimethylphenyl)-5,7-dimethoxyquinazolin-4(3H)-one] | 213 to 214 °C | Active |
| COc1cc(OC)c2c(=O)[nH]c(-c3cc(C)c(OCCn4ccnc4)c(C)c3)nc2c1 [Example 69, 2-(4-(2-(1H-Imidazol-1-yl)ethoxy)-3,5-dimethylphenyl)-5,7-dimethoxyquinazolin-4(3H)-one] | 218 to 219 °C | Active |
| COc1ccc2c(=O)[nH]c(-c3cc(C)c(OCCN4CCCC4)c(C)c3)nc2c1 [Example 70, 2-(3,5-Dimethyl-4-(2-(pyrrolidin-1-yl)ethoxy)phenyl)-7-methoxyquinazolin-4(3H)-one] | 218 to 220 °C | Inactive |
| COc1cc(OC)c2c(=O)[nH]c(-c3cc(C)c(OCCN4CCN(C)CC4)c(C)c3)nc2c1 [Example 71, 2-(3,5-Dimethyl-4-(2-(4-methylpiperazin-1-yl)ethoxy)phenyl)-5,7-dimethoxyquinazolin-4(3H)-one] | 180 to 182 °C | Active |
| COc1cc(OC)c2c(=O)[nH]c(-c3cc(C)c(OCCN4CCCCC4)c(C)c3)nc2c1 [Example 72, 2-(3,5-Dimethyl-4-(2-(piperidin-1-yl)ethoxy)phenyl)-5,7-dimethoxyquinazolin-4(3H)-one] |  | Active |
| COc1cc(OC)c2c(=O)[nH]c(-c3cc(C)c(OCCN4C(=O)CN(C(C)C)C4=O)c(C)c3)nc2c1 [Example 74, 3-(2-(4-(5,7-Dimethoxy-4-oxo-3,4-dihydroquinazolin-2-yl)-2,6-dimethylphenoxy)ethyl)-1-isopropylimidazolidine-2,4-dione] | 219 to 221 °C | Active |
| COc1cc(OC)c2c(=O)[nH]c(-c3cc(C)c(OCCCN4CCCC4)c(C)c3)nc2c1 [Example 75, 2-(3,5-Dimethyl-4-(3-(pyrrolidin-1-yl)propoxy)phenyl)-5,7-dimethoxyquinazolin-4(3H)-one] |  | Active |
| COc1cc(OC)c2c(=O)[nH]c(-c3ccc(OCCN4CCCC4)cc3)nc2c1 [Example 76, 5,7-Dimethoxy-2-(4-(2-(pyrrolidin-1-yl)ethoxy)phenyl)quinazolin-4(3H)-one] | 226 to 227 °C | Active |
| COc1cc(OC)c2c(=O)[nH]c(-c3cc(C)c(CCCN4CCCC4)c(C)c3)nc2c1 [Example 77, 2-(3,5-Dimethyl-4-(3-(pyrrolidin-1-yl)propyl)phenyl)-5,7-dimethoxyquinazolin-4(3H)-one] | 194 to 196 °C | Active |
| COc1cc(OC)c2c(=O)[nH]c(-c3cc(C)c(OCCCCN4CCCC4)c(C)c3)nc2c1 [Example 78, 2-(3,5-Dimethyl-4-(4-(pyrrolidin-1-yl)butoxy)phenyl)-5,7-dimethoxyquinazolin-4(3H)-one] | 180 to 181 °C | Active |
| COc1cc(OC)c2c(=O)[nH]c(-c3cc(C)c(OCCN4C(=O)NC(c5ccccc5)C4=O)c(C)c3)nc2c1 (stereo not drawn) [Example 79, 3-(2-(4-(5,7-Dimethoxy-4-oxo-3,4-dihydroquinazolin-2-yl)-2,6-dimethylphenoxy)ethyl)-5-phenylimidazolidine-2,4-dione] | 219.6 to 221.4 °C | Active |
| Cc1cc(-c2nc3cc(F)cc(N4CCCC4)c3c(=O)[nH]2)cc(C)c1OCCN1CCCC1 [Example 82, 2-(3,5-Dimethyl-4-(2-(pyrrolidin-1-yl)ethoxy)phenyl)-7-fluoro-5-(pyrrolidin-1-yl)quinazolin-4(3H)-one] |  | Inactive |
| Cc1cc(-c2nc3cc(F)cc(F)c3c(=O)[nH]2)cc(C)c1OCCN1CCCC1 [Example 85, 2-(3,5-Dimethyl-4-(2-(pyrrolidin-1-yl)ethoxy)phenyl)-5,7-difluoroquinazolin-4(3H)-one] |  | Inactive |
| COc1cc(OC)c2c(=O)[nH]c(-c3cc(C)c(OCCN4C(=O)c5ccccc5C4=O)c(C)c3)cc2c1 [Example 90, 2-(2-(4-(6,8-Dimethoxy-1-oxo-1,2-dihydroisoquinolin-3-yl)-2,6-dimethylphenoxy)ethyl)isoindoline-1,3-dione] |  | Inactive |
| Cc1cc(-c2nc3nc(OC(C)C)cc(OC(C)C)c3c(=O)[nH]2)cc(C)c1OCCN1CCCC1 [Example 91, 2-(3,5-Dimethyl-4-(2-(pyrrolidin-1-yl)ethoxy)phenyl)-5,7-diisopropoxypyrido[2,3-d]pyrimidin-4(3H)-one] |  | Inactive |
| COc1cc(OC)c2c(=O)[nH]c(-c3cc(C)c(OC[C@@H]4CCC(=O)N4)c(C)c3)nc2c1 [Example 92, (S)-2-(3,5-Dimethyl-4-((5-oxopyrrolidin-2-yl)methoxy)phenyl)-5,7-dimethoxyquinazolin-4(3H)-one] |  | Active |
| COc1cc(OC)c2c(=O)[nH]c(-c3ccc(CN4CCN(C(C)C)CC4)cc3)nc2c1 [Example 93, 2-(4-((4-Isopropylpiperazin-1-yl)methyl)phenyl)-5,7-dimethoxyquinazolin-4(3H)-one] |  | Active |
| COc1cc(OC)c2c(=O)[nH]c(-c3ccc(CN4CCC(N(C(C)=O)C(C)C)CC4)cc3)nc2c1 [Example 94, N-(1-(4-(5,7-Dimethoxy-4-oxo-3,4-dihydroquinazolin-2-yl)benzyl)piperidin-4-yl)-N-isopropylacetamide] |  | Active |
| COc1cc(OC)c2c(=O)[nH]c(-c3ccc(CN4CCC(NC(C)C)CC4)cc3)nc2c1 [Example 95, 2-(4-((4-(Isopropylamino)piperidin-1-yl)methyl)phenyl)-5,7-dimethoxyquinazolin-4(3H)-one] |  | Active |
| COc1cc(OC)c2c(=O)[nH]c(-c3cc(C)c(OCCN4C(=O)CCC4=O)c(C)c3)nc2c1 [Example 97, 1-(2-(4-(5,7-Dimethoxy-4-oxo-3,4-dihydroquinazolin-2-yl)-2,6-dimethylphenoxy)ethyl)pyrrolidine-2,5-dione] |  | Active |
| COCCOc1cc(OC)cc2nc(-c3cc(C)nc(C)c3)[nH]c(=O)c12 [Example 105, 2-(2,6-Dimethylpyridin-4-yl)-7-methoxy-5-(2-methoxyethoxy)quinazolin-4(3H)-one] |  | Active |
| COc1cc(OCCOC(C)C)cc2nc(-c3cc(C)nc(C)c3)[nH]c(=O)c12 [Example 107, 2-(2,6-Dimethylpyridin-4-yl)-7-(2-isopropoxyethoxy)-5-methoxyquinazolin-4(3H)-one] | 188 to 189 °C |  |
| COc1cccc(-c2nc3cc(OC)cc(OC)c3c(=O)[nH]2)c1 [Example 116, 5,7-Dimethoxy-2-(3-methoxyphenyl)quinazolin-4(3H)-one] |  | Inactive |
